Test results: patent US11191809B2, “Composition in powder form comprising iron-milk protein complexes and probiotic bacteria” (NESTEC S.A., priority 2016, dated 2021)

Test system: probiotic bacteria
Test: Viability of probiotic bacteria with iron sources (general finding of the inventors)
Format: cell-based
Settings: general statement; reconstitution of powder with a liquid

`O.O.O.O.O.O.O.O=S(=O)([O-])[O-].[Fe+2]` [ferrous sulphate heptahydrate] was tested, and the “loss of viability of probiotic bacteria” value was “significant loss of viability”.
